Experiments:
[1] = Evaluation of dissolvability (saturated solution in organic solvent); assay type: physicochemical; details: reflux 10 min, cooled to room temperature, left 16 hours, filtrated
Description: Each of the compounds obtained in Examples 1, 3, 5, 6, 7, 8, 9, 10, 11 and 12 and the corresponding specific compounds (24) to (33) was added to toluene, THF, anisole or chloroform (each: […]) until insoluble matter was found. The resultant mixture was stirred for 10 min under reflux of the solvent and cooled to room temperature, followed by stirring for 1 hour. After the mixture had been left to stand still for 16 hours, the supernatant was filtrated with a 0.2 μm PTFE filter to obtain a saturated solution. The obtained solution was dried under reduced pressure to calculate the dissolvability of the compound to each solvent.
The evaluation criteria in Table 1 are as follows.
A: 0.5% by mass≦Dissolvability B: 0.1% by mass≦Dissolvability<0.5% by mass C: 0.005% by mass≦Dissolvability<0.1% by mass D: Dissolvability<0.005% by mass

[2] = Solubility of annealed thin film in solvents; assay type: physicochemical; details: chloroform, THF, toluene, etc. at 25° C.; film after annealing 30 min at 150° C.
Description: Each (5 mg) of Ex. 1 compound and Ex. 2 compound synthesized in Synthesis Examples 1 and 2 was dissolved in THF, so that the concentration of the compound became 0.1% by mass, and the mixture was filtrated using a 0.2 μm-filter to prepare a solution. Onto a N-type silicon substrate having a 300 nm-thick thermally-oxidized film, which had been soaked in concentrated sulfuric acid for 24 hours, 100 μL of the prepared solution was added dropwise with a pipette, and a […] liquid droplet of the prepared solution was jetted 50 times using an inkjet apparatus (head; product of Ricoh Printing Systems, Ltd.). The thus-treated substrate was covered with a petri dish and left to stand still until the solvent was evaporated to thereby form a thin film. […] Next, the thin film was subjected to annealing for 30 min at 150° C. in an argon atmosphere.
After annealing, a plurality of colored domains were observed under the polarization microscope, and it was confirmed that a smooth and crystalline film was obtained. These films were obtained because each of Ex. 1 compound and Ex. 2 compound serving as precursors lost an ester group (i.e., a soluble group) and converted to Compound 24 having stronger intermolecular interaction, and became crystalline in the film. The thin film was insoluble in chloroform, THF, toluene, etc. at 25° C.

c1ccc2cc(-c3cc4sc(-c5ccc6ccccc6c5)cc4s3)ccc2c1 [Compound (24)]
Dissolvability, solvent Anisole [1]: D (Dissolvability<0.005% by mass) | Dissolvability, solvent THF [1]: D (Dissolvability<0.005% by mass) | Dissolvability, solvent Toluene [1]: D (Dissolvability<0.005% by mass) | solubility of thin film [2]: insoluble

c1ccc2c(c1)ccc1c3cc4sc5c6ccccc6ccc5c4cc3sc21 [Compound (25)]
Dissolvability, solvent Anisole [1]: D (Dissolvability<0.005% by mass) | Dissolvability, solvent THF [1]: D (Dissolvability<0.005% by mass) | Dissolvability, solvent Toluene [1]: D (Dissolvability<0.005% by mass)

c1ccc2c(c1)ccc1cc3ccc4c5c(ccc6ccccc65)cc5ccc(c12)c3c54 [Compound (26)]
Dissolvability, solvent Anisole [1]: D (Dissolvability<0.005% by mass) | Dissolvability, solvent THF [1]: D (Dissolvability<0.005% by mass) | Dissolvability, solvent Toluene [1]: D (Dissolvability<0.005% by mass)

c1ccc2c(c1)ccc1c3cc4ccc5c6ccccc6ccc5c4cc3ccc21 [Compound (27)]
Dissolvability, solvent Anisole [1]: D (Dissolvability<0.005% by mass) | Dissolvability, solvent THF [1]: D (Dissolvability<0.005% by mass) | Dissolvability, solvent Toluene [1]: D (Dissolvability<0.005% by mass)

c1cc2ccc3cc4ccc5cc6c(ccc7cc8ccc9cccc%10ccc(c76)c8c9%10)cc5c4c4ccc(c1)c2c34 [Compound (28)]
Dissolvability, solvent Anisole [1]: D (Dissolvability<0.005% by mass) | Dissolvability, solvent THF [1]: D (Dissolvability<0.005% by mass) | Dissolvability, solvent Toluene [1]: D (Dissolvability<0.005% by mass)

c1ccc2cc3c(ccc4c3ccc3c4ccc4c5ccc6cc7ccccc7cc6c5ccc43)cc2c1 [Compound (29)]
Dissolvability, solvent Anisole [1]: D (Dissolvability<0.005% by mass) | Dissolvability, solvent THF [1]: D (Dissolvability<0.005% by mass) | Dissolvability, solvent Toluene [1]: D (Dissolvability<0.005% by mass)

C(#Cc1cc2sc3cc4c(cc3c2s1)sc1cc(C#Cc2ccc3ccccc3c2)sc14)c1ccc2ccccc2c1 [Compound (30)]
Dissolvability, solvent Anisole [1]: D (Dissolvability<0.005% by mass) | Dissolvability, solvent THF [1]: D (Dissolvability<0.005% by mass) | Dissolvability, solvent Toluene [1]: D (Dissolvability<0.005% by mass)

C(#Cc1ccc2c(ccc3cc(C#Cc4ccccc4)ccc32)c1)c1ccccc1 [Compound (31)]
Dissolvability, solvent Anisole [1]: C (0.005% by mass≦Dissolvability<0.1% by mass) | Dissolvability, solvent THF [1]: B (0.1% by mass≦Dissolvability<0.5% by mass) | Dissolvability, solvent Toluene [1]: C (0.005% by mass≦Dissolvability<0.1% by mass)

COC1CC=Cc2ccc(-c3cc4sc(-c5ccc6c(c5)C(OC)CC=C6)cc4s3)cc21 (stereo not shown) [Ex. 3 compound]
Dissolvability, solvent Anisole [1]: B (0.1% by mass≦Dissolvability<0.5% by mass) | Dissolvability, solvent THF [1]: A (0.5% by mass≦Dissolvability) | Dissolvability, solvent Toluene [1]: A (0.5% by mass≦Dissolvability)

CCCCC(CC)C(=O)OC1Cc2ccccc2-c2c1cc1ccc3c4c(cc5ccc2c1c53)C(OC(=O)C(CC)CCCC)Cc1ccccc1-4 (stereo not shown) [Ex. 7 compound]
Dissolvability, solvent Anisole [1]: B (0.1% by mass≦Dissolvability<0.5% by mass) | Dissolvability, solvent THF [1]: A (0.5% by mass≦Dissolvability) | Dissolvability, solvent Toluene [1]: B (0.1% by mass≦Dissolvability<0.5% by mass)

CC(C)(C)C(=O)OC1Cc2cc3c(cc2-c2ccc4ccccc4c21)CC(OC(=O)C(C)(C)C)c1c-3ccc2ccccc12 (stereo not shown) [Ex. 8 compound]
Dissolvability, solvent Anisole [1]: A (0.5% by mass≦Dissolvability) | Dissolvability, solvent THF [1]: A (0.5% by mass≦Dissolvability) | Dissolvability, solvent Toluene [1]: A (0.5% by mass≦Dissolvability)

CCCCCC(=O)OC1CC=Cc2cc3c(ccc4c3ccc3c4ccc4c5ccc6cc7c(cc6c5ccc43)C=CCC7OC(=O)CCCCC)cc21 (stereo not shown) [Ex. 10 compound]
Dissolvability, solvent Anisole [1]: B (0.1% by mass≦Dissolvability<0.5% by mass) | Dissolvability, solvent THF [1]: A (0.5% by mass≦Dissolvability) | Dissolvability, solvent Toluene [1]: B (0.1% by mass≦Dissolvability<0.5% by mass)

CCCCCC(=O)OC1Cc2cc(C#Cc3ccccc3)ccc2-c2ccc(C#Cc3ccccc3)cc21 (stereo not shown) [Ex. 12 compound]
Dissolvability, solvent Anisole [1]: A (0.5% by mass≦Dissolvability) | Dissolvability, solvent THF [1]: A (0.5% by mass≦Dissolvability) | Dissolvability, solvent Toluene [1]: A (0.5% by mass≦Dissolvability)

— patent US20130095605A1, “LEAVING SUBSTITUENT-CONTAINING COMPOUND, ORGANIC SEMICONDUCTOR MATERIAL FORMED THEREFROM, ORGANIC ELECTRONIC DEVICE, ORGANIC THIN-FILM TRANSISTOR AND DISPLAY DEVICE USING THE ORGANIC SEMICONDUCTOR MATERIAL, METHOD FOR PRODUCING FILM-LIKE PRODUCT, PI-ELECTRON CONJUGATED COMPOUND AND METHOD FOR …” (RICOH COMPANY, LTD., priority 2010, published 2013)
